Data as given in ChEMBL document CHEMBL1147535, “Biaryl amide glucagon receptor antagonists” (Bioorg Med Chem Lett, 2004).
Blank lines part the entries; values can stand above or below the compound they belong to.

Tests used:
Adenylate cyclase [1] = experiment: In vitro inhibitory activity against glucagon induced human adenylate cyclase; assay type: protein assay
Glucagon receptor = Glucagon receptor (Homo sapiens, UniProt P47871); experiment: In vitro binding affinity against human glucagon receptor (h-GlucR) was determined
Chain of Glucagon receptor (P47871 whole entry): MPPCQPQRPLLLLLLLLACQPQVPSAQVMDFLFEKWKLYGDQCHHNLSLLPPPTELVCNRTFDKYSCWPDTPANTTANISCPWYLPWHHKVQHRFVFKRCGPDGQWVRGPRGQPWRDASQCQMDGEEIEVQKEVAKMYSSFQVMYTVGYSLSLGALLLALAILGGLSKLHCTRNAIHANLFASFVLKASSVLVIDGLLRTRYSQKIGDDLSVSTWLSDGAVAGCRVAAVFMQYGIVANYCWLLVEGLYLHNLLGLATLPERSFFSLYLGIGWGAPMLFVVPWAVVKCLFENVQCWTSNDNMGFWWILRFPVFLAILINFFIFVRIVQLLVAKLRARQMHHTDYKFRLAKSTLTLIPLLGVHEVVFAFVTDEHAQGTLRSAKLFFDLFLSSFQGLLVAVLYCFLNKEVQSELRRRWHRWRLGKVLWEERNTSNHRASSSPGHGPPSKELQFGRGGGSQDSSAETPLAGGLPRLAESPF

[2] = Oral bioavailability; assay type: ADME, organism-based; details: eutheria, in vivo
Adenylate cyclase [3] = experiment: In vitro inhibitory activity against glucagon induced monkey adenylate cyclase; assay type: protein assay, Cercopithecidae
Rattus norvegicus = experiment: Percent reduction of glucagon induced glucose excursion by the compound after an i.v. dose of 50 mg/kg to rats; assay type: functional; details: route intravenous

Ki (Adenylate cyclase [1]): > 2 µM
Ki (Glucagon receptor): 0.073 µM
Structure (SMILES): CC(C)(C)c1ccc(C(Cc2ccc(C(=O)NCCC(=O)O)cc2)C(=O)Nc2ccc(N3CCCCC3)cc2)cc1 (stereo not given)

Ki (Adenylate cyclase [1]): 0.61 µM
Ki (Glucagon receptor): 0.011 µM
Structure (SMILES): CC(C)(C)c1ccc(C(Cc2ccc(C(=O)NCCC(=O)O)cc2)C(=O)Nc2cnc3ccccc3c2)cc1 (stereo not given)

Ki (Adenylate cyclase [1]): 0.033 µM
Ki (Glucagon receptor): 0.006 µM
Structure (SMILES): CC(C)(C)c1ccc(C(Cc2ccc(C(=O)NCCC(=O)O)cc2)C(=O)Nc2ccc(-c3ccc(Cl)cc3Cl)cc2)cc1 (stereo not given)

Ki (Adenylate cyclase [1]): 0.3 µM
Ki (Glucagon receptor): 0.011 µM
Structure (SMILES): CC(C)(C)c1ccc(C(Cc2ccc(C(=O)NCCC(=O)O)cc2)C(=O)Nc2ccc(-c3ccccc3)cc2)cc1 (stereo not given)

bioavailability [2]: < 5%
Ki (Adenylate cyclase [3]): 0.069 µM
Ki (Adenylate cyclase [1]): 0.029 µM
Ki (Glucagon receptor): 0.004 µM
Structure (SMILES): CC(C)(C)c1ccc(C(Cc2ccc(C(=O)NCCC(=O)O)cc2)C(=O)Nc2ccc(-c3cc4ccccc4o3)cc2)cc1 (stereo not given)
Reduction (Rattus norvegicus): 50%

Ki (Adenylate cyclase [1]): > 2 µM
Ki (Glucagon receptor): 0.08 µM
Structure (SMILES): CCc1cccc(NC(=O)C(Cc2ccc(C(=O)NCCC(=O)O)cc2)c2ccc(C(C)(C)C)cc2)c1 (stereo not given)

Ki (Adenylate cyclase [1]): > 2 µM
Ki (Glucagon receptor): 0.026 µM
Structure (SMILES): CCc1ccc(NC(=O)C(Cc2ccc(C(=O)NCCC(=O)O)cc2)c2ccc(C(C)(C)C)cc2)cc1 (stereo not given)

Ki (Adenylate cyclase [1]): 0.11 µM
Ki (Glucagon receptor): 0.051 µM
Structure (SMILES): CC(C)(C)c1ccc(C(Cc2ccc(C(=O)NCCC(=O)O)cc2)C(=O)Nc2ccc(OC(F)(F)F)cc2)cc1 (stereo not given)

Ki (Adenylate cyclase [1]): > 2 µM
Ki (Glucagon receptor): 5 µM
Structure (SMILES): CC(C)(C)c1ccc(C(Cc2ccc(C(=O)NCCC(=O)O)cc2)C(=O)Nc2ccc(COC(F)(F)F)cc2)cc1 (stereo not given)

Ki (Adenylate cyclase [1]): 1 µM
Ki (Glucagon receptor): 0.029 µM
Structure (SMILES): CC(C)(C)c1ccc(C(Cc2ccc(C(=O)NCCC(=O)O)cc2)C(=O)Nc2ccc(CO)cc2)cc1 (stereo not given)

Ki (Adenylate cyclase [1]): > 2 µM
Ki (Glucagon receptor): 0.07 µM
Structure (SMILES): CC(C)(C)c1ccc(C(Cc2ccc(C(=O)NCCC(=O)O)cc2)C(=O)Nc2ccc(-n3cccn3)cc2)cc1 (stereo not given)

More lines, now with the values behind:

Structure (SMILES): CCCCCCC(Oc1ccc(C(=O)NCCC(=O)O)cc1)C(=O)Nc1ccc(-c2cc3ccccc3o2)cc1 (stereo not given)
Ki (Adenylate cyclase [1]): 0.017 µM
Ki (Glucagon receptor): 0.003 µM

Structure (SMILES): CCN1CCN(C(=O)C(Cc2ccc(C(=O)NCCC(=O)O)cc2)c2ccc(C(C)(C)C)cc2)CC1 (stereo not given)
Ki (Adenylate cyclase [1]): > 2 µM
Ki (Glucagon receptor): > 5 µM

Structure (SMILES): CC(C)(C)c1ccc(C(Oc2ccc(C(=O)NCC(F)C(=O)O)cc2)C(=O)Nc2ccc(-c3ccccc3)cc2)cc1 (stereo not given)
Ki (Adenylate cyclase [1]): > 2 µM
Ki (Glucagon receptor): 0.026 µM

Structure (SMILES): CC(C)(C)c1ccc(C(Oc2ccc(C(=O)NCCC(=O)O)cc2)C(=O)Nc2ccc(-c3ccccc3)cc2)cc1 (stereo not given)
Ki (Adenylate cyclase [1]): 0.144 µM
Ki (Glucagon receptor): 0.009 µM

Structure (SMILES): CCCCCCC(Cc1ccc(C(=O)NCCC(=O)O)cc1)C(=O)Nc1ccc(-c2cc3ccccc3o2)cc1 (stereo not given)
Ki (Adenylate cyclase [1]): 0.02 µM
Ki (Glucagon receptor): 0.006 µM

Structure (SMILES): Cc1ccc(N2CCN(C(=O)C(Cc3ccc(C(=O)NCCC(=O)O)cc3)c3ccc(C(C)(C)C)cc3)CC2)cc1 (stereo not given)
Ki (Adenylate cyclase [1]): > 2 µM
Ki (Glucagon receptor): 0.4 µM

Structure (SMILES): CC(C)(C)c1ccc(C(Oc2ccc(C(=O)NCC(O)C(=O)O)cc2)C(=O)Nc2ccc(-c3ccccc3)cc2)cc1 (stereo not given)
Ki (Adenylate cyclase [1]): > 2 µM
Ki (Glucagon receptor): 0.112 µM

Structure (SMILES): CCCCCCC(Oc1ccc(C(=O)NCCC(=O)O)cc1)C(=O)Nc1ccc(-c2ccc(Cl)cc2Cl)cc1 (stereo not given)
Ki (Adenylate cyclase [1]): 0.014 µM
Ki (Glucagon receptor): 0.006 µM

Structure (SMILES): CC(C)(C)c1ccc(C(Oc2ccc(C(=O)Nc3nn[nH]n3)cc2)C(=O)Nc2ccc(-c3ccccc3)cc2)cc1 (stereo not given)
Ki (Adenylate cyclase [1]): 0.317 µM
Ki (Glucagon receptor): 0.066 µM

Structure (SMILES): CC(C)(C)[C@H]1CC[C@H](N(Cc2ccc(C(=O)NCCC(=O)O)cc2)C(=O)Nc2ccc(OC(F)(F)F)cc2)CC1
Ki (Adenylate cyclase [1]): 0.254 µM
Ki (Glucagon receptor): 0.063 µM
